Results from patent US6737383B1, “Herbicidal oxadiazolidines” (priority 1999, dated 2004).

Legend:
blackgrass = test: Test B pre/postemergence blackgrass; format: in vivo, Alopecurus myosuroides
Method in brief: (§1)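 Test chemicals in a non-phytotoxic solvent mixture with surfactant were sprayed preemergence onto planted seeds and postemergence onto plants 2 to 18 cm tall (1- to 4-leaf stage). After twelve to sixteen days in a greenhouse, injury was visually rated against untreated controls from 0 (no effect) to 10 (complete control).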

purple nutsedge = test: Test B pre/postemergence purple nutsedge; format: in vivo, Cyperus rotundus
Method in brief: as §1

giant foxtail = test: Test B pre/postemergence giant foxtail; format: in vivo, Setaria faberii
Method in brief: as §1

smallflower flatsedge = test: Test B flood test smallflower flatsedge; format: in vivo, Cyperus difformis
Method in brief: (§2)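 Plants were grown to the 2-leaf stage before treatment with test chemical, then held in a greenhouse for twelve to sixteen days. Injury was visually rated against untreated controls on a 0–10 scale, where 0 is no effect and 10 is complete control.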

corn = test: Test B pre/postemergence corn; format: in vivo, Zea mays
Method in brief: as §1

morningglory = test: Test B pre/postemergence morningglory; format: in vivo, Ipomoea hederacea
Method in brief: as §1

sugar beet = test: Test B pre/postemergence sugar beet; format: in vivo, Beta vulgaris; details: for Plant response rating, Sugarbeets: Rate 250 g/ha
Method in brief: as §1

rice = test: Test B flood test rice; format: in vivo, Oryza sativa
Method in brief: as §2

cocklebur = test: Test B pre/postemergence cocklebur; format: in vivo, Xanthium strumarium
Method in brief: as §1

wheat = test: Test B pre/postemergence wheat; format: in vivo, Triticum aestivum; details: for Plant response rating, Wheat: Rate 250 g/ha
Method in brief: as §1

rape = test: Test B pre/postemergence rape; format: in vivo, Brassica napus
Method in brief: as §1

crabgrass = test: Test B pre/postemergence crabgrass; format: in vivo, Digitaria sanguinalis
Method in brief: as §1

velvetleaf = test: Test B pre/postemergence velvetleaf; format: in vivo, Abutilon theophrasti; details: for Plant response rating, Velvetleaf: Rate 250 g/ha
Method in brief: as §1

pigweed = test: Test B pre/postemergence pigweed; format: in vivo, Amaranthus retroflexus
Method in brief: as §1

duck salad = test: Test B flood test duck salad; format: in vivo, Heteranthera limosa
Method in brief: as §2

surinam grass = test: Test B pre/postemergence surinam grass; format: in vivo, Brachiaria decumbens
Method in brief: as §1

[1] = Postemergence, Rate 125 g/ha, scale of 0 to 10 where 0 is no effect and 10 is complete control
[2] = Postemergence, Rate 250 g/ha, scale 0 to 10, 0 no effect, 10 complete control
[3] = Preemergence, Rate 62 g/ha, scale 0 to 10 (0 no effect, 10 complete control)
[4] = Preemergence, Rate 125 g/ha, scale 0 to 10 (0 no effect, 10 complete control)
[5] = Preemergence, Rate 250 g/ha, scale of 0 to 10 where 0 is no effect and 10 is complete control
[6] = Preemergence, Rate 500 g/ha, scale 0 to 10 (0 no effect, 10 complete control)
[7] = Rate 62 g/ha, Postemergence, scale of 0 to 10 where 0 is no effect and 10 is complete control
[8] = Rate 500 g/ha, Postemergence, scale 0 to 10, 0 no effect, 10 complete control
[9] = Postemergence (flood test species), Rate 125 g/ha, scale of 0 to 10 where 0 is no effect and 10 is complete control
[10] = Rate 62 g/ha, Postemergence section, flood test species, scale of 0 to 10 where 0 is no effect and 10 is complete control
[11] = Rate 250 g/ha, Postemergence (flood test), scale 0 to 10, 0 is no effect, 10 is complete control
[12] = Rate 500 g/ha, listed under Postemergence (flood test species), scale 0 to 10, 0 no effect, 10 complete control
[13] = Preemergence, Rate 125 g/ha, 0 is no effect, 10 is complete control
[14] = Preemergence, scale of 0 to 10 where 0 is no effect and 10 is complete control
[15] = Postemergence, scale 0 to 10, 0 is no effect, 10 is complete control

## CC(C)N(C(=O)n1oc(=O)n(Cc2ccccc2)c1=O)c1ccc(Cl)cc1 [Compound 106]
blackgrass; [1]
  Blackgrass plant response rating: 0
blackgrass; [2]
  Blackgrass plant response rating: 1
blackgrass; [3]
  Blackgrass plant response rating: 0
blackgrass; [4]
  Plant response rating, Blackgrass: 0
blackgrass; [5]
  Plant response rating, Blackgrass: 0
blackgrass; [6]
  Blackgrass plant response rating: 2
blackgrass; [7]
  Blackgrass plant response rating: 0
blackgrass; [8]
  Blackgrass plant response rating: 3
Purple nutsedge; [1]
  Nutsedge plant response rating: 0
Purple nutsedge; [2]
  Nutsedge plant response rating: 0
Purple nutsedge; [3]
  Nutsedge plant response rating: 0
Purple nutsedge; [4]
  Plant response rating, Nutsedge: 0
Purple nutsedge; [5]
  Plant response rating, Nutsedge: 0
Purple nutsedge; [6]
  Nutsedge plant response rating: 0
Purple nutsedge; [7]
  Nutsedge plant response rating: 0
Purple nutsedge; [8]
  Nutsedge plant response rating: 0
Giant foxtail; [1]
  Giant foxtail plant response rating: 2
Giant foxtail; [2]
  Giant foxtail plant response rating: 3
Giant foxtail; [3]
  Giant foxtail plant response rating: 2
Giant foxtail; [4]
  Plant response rating, Giant foxtail: 5
Giant foxtail; [5]
  Plant response rating, Giant foxtail: 10
Giant foxtail; [6]
  Giant foxtail plant response rating: 10
Giant foxtail; [7]
  Giant foxtail plant response rating: 0
Giant foxtail; [8]
  Giant foxtail plant response rating: 3
Smallflower flatsedge; [9]
  S. Flatsedge plant response rating: 0
Smallflower flatsedge; [10]
  S. Flatsedge plant response rating: 0
Smallflower flatsedge; [11]
  Plant response rating, S. Flatsedge: 0
Smallflower flatsedge; [12]
  S. Flatsedge plant response rating: 0
corn; [1]
  Corn plant response rating: 0
corn; [2]
  Corn plant response rating: 0
corn; [3]
  Corn plant response rating: 0
corn; [4]
  Plant response rating, Corn: 0
corn; [5]
  Plant response rating, Corn: 0
corn; [6]
  Corn plant response rating: 0
corn; [7]
  Corn plant response rating: 0
corn; [8]
  Corn plant response rating: 0
morningglory; [1]
  Morningglory plant response rating: 7
morningglory; [2]
  Morningglory plant response rating: 8
morningglory; [3]
  Morningglory plant response rating: 0
morningglory; [4]
  Plant response rating, Morningglory: 0
morningglory; [5]
  Plant response rating, Morningglory: 0
morningglory; [6]
  Morningglory plant response rating: 0
morningglory; [7]
  Morningglory plant response rating: 6
morningglory; [8]
  Morningglory plant response rating: 10
Sugar beet; [1]
  Sugarbeets plant response rating: 0
Sugar beet; [3]
  Sugarbeets plant response rating: 0
Sugar beet; [13]
  Sugarbeets plant response rating (0 to 10 scale): 0
Sugar beet; [14]
  Plant response rating, Sugarbeets: 0
Sugar beet; [6]
  Sugarbeets plant response rating: 2
Sugar beet; [7]
  Sugarbeets plant response rating: 0
Sugar beet; [15]
  Plant response rating, Sugarbeets: 0
Sugar beet; [8]
  Sugarbeets plant response rating: 0
rice; [9]
  Rice plant response rating: 0
rice; [10]
  Rice plant response rating: 0
rice; [11]
  Plant response rating, Rice: 0
rice; [12]
  Rice plant response rating: 0
cocklebur; [1]
  Cocklebur plant response rating: 2
cocklebur; [2]
  Cocklebur plant response rating: 2
cocklebur; [3]
  Cocklebur plant response rating: 0
cocklebur; [4]
  Plant response rating, Cocklebur: 0
cocklebur; [5]
  Plant response rating, Cocklebur: 0
cocklebur; [6]
  Cocklebur plant response rating: 0
cocklebur; [7]
  Cocklebur plant response rating: 0
cocklebur; [8]
  Cocklebur plant response rating: 4
wheat; [1]
  Wheat plant response rating: 0
wheat; [3]
  Wheat plant response rating: 0
wheat; [13]
  Wheat plant response rating (0 to 10 scale): 0
wheat; [14]
  Plant response rating, Wheat: 0
wheat; [6]
  Wheat plant response rating: 0
wheat; [7]
  Wheat plant response rating: 0
wheat; [15]
  Plant response rating, Wheat: 0
wheat; [8]
  Wheat plant response rating: 0
rape; [1]
  Rape plant response rating: 0
rape; [2]
  Rape plant response rating: 0
rape; [3]
  Rape plant response rating: 0
rape; [4]
  Plant response rating, Rape: 0
rape; [5]
  Plant response rating, Rape: 0
rape; [6]
  Rape plant response rating: 2
rape; [7]
  Rape plant response rating: 0
rape; [8]
  Rape plant response rating: 0
crabgrass; [1]
  Crabgrass plant response rating: 0
crabgrass; [2]
  Crabgrass plant response rating: 3
crabgrass; [3]
  Crabgrass plant response rating: 0
crabgrass; [4]
  Plant response rating, Crabgrass: 0
crabgrass; [5]
  Plant response rating, Crabgrass: 8
crabgrass; [6]
  Crabgrass plant response rating: 8
crabgrass; [7]
  Crabgrass plant response rating: 0
crabgrass; [8]
  Crabgrass plant response rating: 6
velvetleaf; [1]
  Velvetleaf plant response rating: 0
velvetleaf; [3]
  Velvetleaf plant response rating: 0
velvetleaf; [13]
  Velvetleaf plant response rating (0 to 10 scale): 0
velvetleaf; [14]
  Plant response rating, Velvetleaf: 0
velvetleaf; [6]
  Velvetleaf plant response rating: 0
velvetleaf; [7]
  Velvetleaf plant response rating: 0
velvetleaf; [15]
  Plant response rating, Velvetleaf: 2
velvetleaf; [8]
  Velvetleaf plant response rating: 2
pigweed; [1]
  Redroot pigweed plant response rating: 0
pigweed; [3]
  Redroot pigweed plant response rating: 0
pigweed; [4]
  Plant response rating, Redroot pigweed: 0
pigweed; [5]
  Plant response rating, Redroot pigweed: 0
pigweed; [6]
  Redroot pigweed plant response rating: 4
pigweed; [7]
  Redroot pigweed plant response rating: 0
pigweed; Rate 250 g/ha, Postemergence, scale 0 to 10, 0 is no effect, 10 is complete control
  Plant response rating, Redroot pigweed: 0
pigweed; [8]
  Redroot pigweed plant response rating: 6
Duck salad; [9]
  Ducksalad plant response rating: 0
Duck salad; [10]
  Ducksalad plant response rating: 0
Duck salad; [12]
  Ducksalad plant response rating: 0
Duck salad; flood test, listed under Postemergence, Rate 250 g/ha, scale 0 to 10, 0 no effect, 10 complete control
  Ducksalad plant response rating: 0
Surinam grass; Postemergence, Rate 62 g/ha, scale 0 to 10, 0 is no effect, 10 is complete control
  B. signalgrass plant response rating: 0
Surinam grass; [2]
  B. signalgrass plant response rating: 0
Surinam grass; [3]
  B. signalgrass plant response rating: 0
Surinam grass; [4]
  Plant response rating, B. signalgrass: 0
Surinam grass; [5]
  Plant response rating, B. signalgrass: 0
Surinam grass; [6]
  B. signalgrass plant response rating: 2
Surinam grass; Rate 125 g/ha, Postemergence, scale 0 to 10, 0 no effect, 10 complete control
  B. signalgrass plant response rating: 0
Surinam grass; Rate 500 g/ha, Postemergence, scale of 0 to 10 where 0 is no effect and 10 is complete control
  B. signalgrass plant response rating: 0
